Data from PubChem BioAssay AID248 (DTP/NCI, 2004).
Inconclusive results and toxic doses are left out.

System: L1210 leukemia ip in BDF1 mice, survival T/C
Test: NCI In Vivo Anticancer Drug Screen. Data for tumor model L1210 Leukemia (intraperitoneal) in B6D2F1 (BDF1) mice
Details: endpoint: mean survival time, higher = longer survival
Outline: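 In this screen, tumor-bearing mice given compound are compared to those given vehicle, and their survival values are reported as a treated-to-control quotient.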

[1] = dose: 100.0 mg/kg/injection, schedule: Q01DX009 (ip), vehicle: saline with Tween-80
[2] = dose: 200.0 mg/kg/injection, schedule: Q01DX009 (ip), vehicle: saline with Tween-80
[3] = dose: 100.0 mg/kg/injection, schedule: Q04DX002 (ip), vehicle: Klucel (hydroxypropylcellulose) (HPC)
[4] = dose: 200.0 mg/kg/injection, schedule: Q04DX002 (ip), vehicle: Klucel (hydroxypropylcellulose) (HPC)
[5] = dose: 400.0 mg/kg/injection, schedule: Q04DX002 (ip), vehicle: Klucel (hydroxypropylcellulose) (HPC)
[6] = dose: 200.0 mg/kg/injection, schedule: Q04DX003 (ip), vehicle: Klucel (hydroxypropylcellulose) (HPC)
[7] = dose: 100.0 mg/kg/injection, schedule: Q01DX001 (ip), vehicle: carboxymethylcellulose (CMC)
[8] = dose: 200.0 mg/kg/injection, schedule: Q01DX001 (ip), vehicle: carboxymethylcellulose (CMC)
[9] = dose: 400.0 mg/kg/injection, schedule: Q01DX001 (ip), vehicle: carboxymethylcellulose (CMC)

## O=NN(CCCl)C(=O)N[C@H]1CCC[C@@H](C(=O)O)C1
dose: 18.0 mg/kg/injection, schedule: Q01DX001 (ip), vehicle: Klucel (hydroxypropylcellulose) (HPC)
  T/C: 353 % of control
dose: 26.0 mg/kg/injection, schedule: Q01DX001 (ip), vehicle: Klucel (hydroxypropylcellulose) (HPC)
  T/C: 426 % of control
dose: 40.0 mg/kg/injection, schedule: Q01DX001 (ip), vehicle: Klucel (hydroxypropylcellulose) (HPC)
  T/C: 275 % of control
dose: 60.0 mg/kg/injection, schedule: Q01DX001 (ip), vehicle: Klucel (hydroxypropylcellulose) (HPC)
  T/C: 216 % of control

## Nc1ccc2[nH]c(=S)sc2c1
[1]
  T/C: 104 % of control
[2]
  T/C: 104 % of control
dose: 400.0 mg/kg/injection, schedule: Q01DX009 (ip), vehicle: saline with Tween-80
  T/C: 108 % of control

## Cc1ccc(CNC(=S)Nc2ccccc2)c(C)c1
[3]
  T/C: 96 % of control
[4]
  T/C: 103 % of control
[5]
  T/C: 103 % of control

## CN(C(=O)c1n[nH]c2ccccc12)c1ccccc1
dose: 50.0 mg/kg/injection, schedule: Q04DX002 (ip), vehicle: Klucel (hydroxypropylcellulose) (HPC)
  T/C: 101 % of control
[3]
  T/C: 108 % of control
[4]
  T/C: 101 % of control

## CS(=O)CCNC(=O)NS(=O)(=O)c1ccc(Cl)cc1 (configuration not stated)
dose: 100.0 mg/kg/injection, schedule: Q04DX003 (ip), vehicle: saline
  T/C: 97 % of control
dose: 200.0 mg/kg/injection, schedule: Q04DX003 (ip), vehicle: saline
  T/C: 98 % of control
dose: 400.0 mg/kg/injection, schedule: Q04DX003 (ip), vehicle: saline
  T/C: 108 % of control

## CCC(C)C(C#N)(CCN(CC)CC)c1ccccc1 (configuration not stated)
dose: 50.0 mg/kg/injection, schedule: Q01DX009 (ip), vehicle: Klucel (hydroxypropylcellulose) (HPC)
  T/C: 104 % of control
dose: 100.0 mg/kg/injection, schedule: Q01DX009 (ip), vehicle: Klucel (hydroxypropylcellulose) (HPC)
  T/C: 100 % of control
dose: 100.0 mg/kg/injection, schedule: Q04DX003 (ip), vehicle: Klucel (hydroxypropylcellulose) (HPC)
  T/C: 111 % of control
[6]
  T/C: 103 % of control

## CCOC(=O)CC(C(=O)O)=C(c1ccccc1)c1ccccc1
dose: 50.0 mg/kg/injection, schedule: Q01DX001 (ip), vehicle: carboxymethylcellulose (CMC)
  T/C: 98 % of control
[7]
  T/C: 98 % of control
[8]
  T/C: 93 % of control
[9]
  T/C: 93 % of control

## OC1CSC2=[N+]1CCS2 (configuration not stated)
dose: 75.0 mg/kg/injection, schedule: Q01DX001 (ip), vehicle: saline
  T/C: 98 % of control
dose: 150.0 mg/kg/injection, schedule: Q01DX001 (ip), vehicle: saline
  T/C: 112 % of control
dose: 300.0 mg/kg/injection, schedule: Q01DX001 (ip), vehicle: saline
  T/C: 111 % of control

## Nc1ccc(-c2ccc(N)cc2I)c(I)c1
dose: 25.6 mg/kg/injection, schedule: Q04DX002 (ip), vehicle: saline with Tween-80
  T/C: 100 % of control
dose: 64.0 mg/kg/injection, schedule: Q04DX002 (ip), vehicle: saline with Tween-80
  T/C: 95 % of control
dose: 160.0 mg/kg/injection, schedule: Q04DX002 (ip), vehicle: saline with Tween-80
  T/C: 100 % of control
dose: 400.0 mg/kg/injection, schedule: Q04DX002 (ip), vehicle: saline with Tween-80
  T/C: 103 % of control

## O=NN(Cc1ccc(Cl)cc1)Nc1ncc[nH]1
[3]
  T/C: 101 % of control
[4]
  T/C: 96 % of control
[5]
  T/C: 93 % of control

## CC(=O)C(C=NCCN=CC(C(C)=O)C(C)=O)C(C)=O.[Ni]
dose: 100.0 mg/kg/injection, schedule: Q04DX002 (ip), vehicle: saline with Tween-80
  T/C: 98 % of control
dose: 200.0 mg/kg/injection, schedule: Q04DX002 (ip), vehicle: saline with Tween-80
  T/C: 98 % of control

## S=C(Nc1ccccn1)Nc1ccccn1
dose: 50.0 mg/kg/injection, schedule: Q01DX009 (ip), vehicle: saline with Tween-80
  T/C: 96 % of control
dose: 50.0 mg/kg/injection, schedule: Q04DX003 (ip), vehicle: Klucel (hydroxypropylcellulose) (HPC)
  T/C: 94 % of control
dose: 50.0 mg/kg/injection, schedule: Q04DX003 (ip), vehicle: saline with Tween-80
  T/C: 96 % of control
[7]
  T/C: 95 % of control
[1]
  T/C: 103 % of control
dose: 100.0 mg/kg/injection, schedule: Q04DX003 (ip), vehicle: saline with Tween-80
  T/C: 101 % of control
[8]
  T/C: 95 % of control
[2]
  T/C: 96 % of control
[6]
  T/C: 87 % of control
dose: 200.0 mg/kg/injection, schedule: Q04DX003 (ip), vehicle: saline with Tween-80
  T/C: 184 % of control
[9]
  T/C: 92 % of control
